Results on six molecules are retold here after article PMC3461280 (Bioorganic & medicinal chemistry letters, 2012).

For data set [1] the following is noted: cited from earlier work.
In data set [2] the test system is hERG potassium channel. The following applies: cited from earlier work.
For data set [3] the following is noted: cited from earlier work. The source holds these as a separate data set.
Data set [4] relates to P450 isoforms. Conditions: cited from earlier work.
The conditions of data set [5]: cited from earlier work. The source holds these as a separate data set.
For data set [6], the target named is human D3 receptor (Homo sapiens, UniProt P35462). It counts as cell-based. The following applies: D3 functional mitogenesis assay.
The conditions of data set [7]: rat; cited from earlier work.

human D3 receptor, sequence (P35462 whole entry): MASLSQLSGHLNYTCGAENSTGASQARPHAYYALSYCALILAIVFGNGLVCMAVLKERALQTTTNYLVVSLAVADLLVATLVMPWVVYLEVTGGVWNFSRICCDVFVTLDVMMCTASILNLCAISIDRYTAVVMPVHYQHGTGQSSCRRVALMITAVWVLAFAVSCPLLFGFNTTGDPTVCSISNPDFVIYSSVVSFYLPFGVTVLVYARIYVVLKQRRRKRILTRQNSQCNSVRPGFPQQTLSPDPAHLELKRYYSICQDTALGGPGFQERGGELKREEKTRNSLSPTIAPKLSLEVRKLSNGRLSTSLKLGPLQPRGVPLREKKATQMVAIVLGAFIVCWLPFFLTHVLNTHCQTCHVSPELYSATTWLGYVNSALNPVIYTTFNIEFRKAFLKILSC

Take `Cc1ncoc1-c1nnc(SCCCN2CC3CC3(c3ccc(C(F)(F)F)cc3F)C2)n1C` (stereo not shown) [Compound 3]: in data set [1], the CNS penetration entry is listed as “good”. In data set [2], the “inhibition at the hERG channel” value was “weak inhibition”. The oral bioavailability entry in data set [3] is “excellent”. Moreover, the “inhibition on all the P450 isoforms” value in data set [4] is recorded as “weak inhibition”.

On to `CCCN(CC[C@H]1CC[C@H](NC(=O)/C=C/c2ccccc2)CC1)[C@H]1CCc2nc(N)sc2C1` [Compound 10], for which, in data set [5], the aqueous solubility entry is on record as “excellent”.

On to `CCCN(CC[C@H]1CC[C@H](NC(=O)c2ccc3ccccc3c2)CC1)[C@H]1CCc2nc(N)sc2C1` [Compound 11], for which the aqueous solubility entry in data set [5] was “excellent”.

In the case of `CCCN(CC[C@H]1CC[C@H](NC(=O)c2cccc(-c3noc(C)n3)c2)CC1)[C@H]1CCc2nc(N)sc2C1` [Compound 38], the “functional activity at the D3 receptor” value in data set [6] is “full agonists”.

Take `CCCN(CC[C@H]1CC[C@H](NS(=O)(=O)c2cccnc2Cl)CC1)[C@H]1CCc2nc(N)sc2C1` [Compound 52]: the “functional activity at the D3 receptor” value in data set [6] was “full agonists”.

For the molecule `Cc1nc(-c2cccc(C(=O)N[C@H]3CC[C@H](CCN4CCc5ccc(S(C)(=O)=O)cc5CC4)CC3)c2)no1` [SB-414796], in data set [1], the CNS penetration entry is listed as “good”. The bioavailability entry in data set [7] was “excellent”.
